The source of these data is patent US6039950A, “Pharmaceutical grade saw palmetto” (priority 1997, dated 2000).

SMILES strings stand for the structures. Read-outs that look alike come from different tables or passages of the source. Numbered stars: 1 amine (or outer) side, 2 acyl side, 3 side chain; on linkers, the order of the positions; unused ones are H or OH. Bridge positions count the residues as written; N and C are the ends. Square brackets hold non-standard residues; d marks the D form. Peptide text beside a SMILES is read from it. I, II: the chains in the order shown. Actinocin(9to1) = Cc1c2oc3c(C)ccc(C(=O)[*:1])c3nc-2c(C(=O)[*:2])c(N)c1=O; NMeV = CN[C@H](C(=O)O)C(C)C; Sar = CNCC(=O)O

Series [1] has as its target 5α-reductase type 1. The conditions noted are these: Table 1; read-out: IC50 for DHT inhibition, epithelial cells (type 1); cited from earlier work.
Series [2] addresses 5α-reductase type 2. The following applies: cited from earlier work.
Series [3] relates to Type 1 5α-reductase. The following applies: Table 2, cited from earlier work; for IC50: read-out: IC50 for DHT, Type 1 5α-reductase.
Series [4] concerns the target T1, 5-lipoxygenase (Rattus norvegicus, UniProt P12527).
T1 sequence (P12527 1-673): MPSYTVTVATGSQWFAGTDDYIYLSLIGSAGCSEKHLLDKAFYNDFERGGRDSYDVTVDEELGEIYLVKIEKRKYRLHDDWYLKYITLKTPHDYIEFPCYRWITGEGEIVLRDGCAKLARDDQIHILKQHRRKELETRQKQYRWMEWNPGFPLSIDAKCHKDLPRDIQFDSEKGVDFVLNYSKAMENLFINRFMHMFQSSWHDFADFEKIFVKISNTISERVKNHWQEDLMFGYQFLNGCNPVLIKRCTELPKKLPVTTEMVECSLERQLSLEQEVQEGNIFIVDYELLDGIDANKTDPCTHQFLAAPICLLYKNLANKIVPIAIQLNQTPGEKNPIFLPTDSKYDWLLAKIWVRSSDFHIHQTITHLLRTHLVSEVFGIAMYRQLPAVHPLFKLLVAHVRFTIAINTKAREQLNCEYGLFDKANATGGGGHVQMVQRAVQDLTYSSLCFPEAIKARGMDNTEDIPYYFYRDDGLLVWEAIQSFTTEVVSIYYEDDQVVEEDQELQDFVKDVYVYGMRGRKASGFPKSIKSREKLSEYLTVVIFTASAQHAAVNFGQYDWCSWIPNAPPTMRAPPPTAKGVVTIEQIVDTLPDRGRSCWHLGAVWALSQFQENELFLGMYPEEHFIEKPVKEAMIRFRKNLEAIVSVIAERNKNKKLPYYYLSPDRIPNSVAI
Nature of the series: biochemical. The conditions noted are these: for 5-Lipo activity: screened at 3×10^-5 (30 μM).
Method: The procedure was as follows. 5-lipoxygenase assays were run using a crude enzyme preparation from rat basophilic leukemia cells (RBL-1). Test compounds were pre-incubated with the enzyme for 5 minutes at room temperature and the reaction was initiated by addition of substrate (arachidonic acid). Following an 8 minute incubation at room temperature, the reaction was terminated by addition of citric acid, and levels of 5-HETE were determined by 5-HETE radioimmunoassay (RIA).
Compounds and fractions were screened at an initial concentration of 3×10^-5.

Series [5] concerns the target T2, Cyclooxygenase-1 (Ovis aries, UniProt P05979).
T2 construct: Cyclooxygenase-1 (from ram seminal vesicles); from tissue; host or cells: ram seminal vesicles; assay by Panlabs
T2 sequence (P05979 25-600): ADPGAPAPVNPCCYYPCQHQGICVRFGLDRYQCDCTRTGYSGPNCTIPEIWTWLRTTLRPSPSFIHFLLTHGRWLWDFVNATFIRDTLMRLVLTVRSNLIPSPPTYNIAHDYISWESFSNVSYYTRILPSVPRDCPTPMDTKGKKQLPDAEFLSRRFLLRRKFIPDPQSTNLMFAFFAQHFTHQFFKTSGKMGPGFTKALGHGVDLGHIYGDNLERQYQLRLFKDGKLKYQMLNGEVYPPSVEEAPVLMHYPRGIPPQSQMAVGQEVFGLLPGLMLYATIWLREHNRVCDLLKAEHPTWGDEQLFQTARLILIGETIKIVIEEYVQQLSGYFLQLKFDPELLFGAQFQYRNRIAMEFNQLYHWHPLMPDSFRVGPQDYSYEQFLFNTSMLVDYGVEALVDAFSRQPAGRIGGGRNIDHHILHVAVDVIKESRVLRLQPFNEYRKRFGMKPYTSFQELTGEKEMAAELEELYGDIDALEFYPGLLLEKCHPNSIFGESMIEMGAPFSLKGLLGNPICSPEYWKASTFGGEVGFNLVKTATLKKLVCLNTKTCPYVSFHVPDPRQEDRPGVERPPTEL
Nature of the series: biochemical. Type of series: biochemical, ram. The following applies: for Cox1 activity: screened at 3×10^-4 M. The protocol: The reaction was initiated by addition of arachidonic acid (100 mM) and terminated after 20 minutes incubation at 37° C. by addition of trichloroacetic acid (TCA).

Series [6] addresses T3, Cyclooxygenase-2 (Ovis aries, UniProt P79208).
T3 construct: Cyclooxygenase-2 (from sheep placenta); from tissue; host or cells: sheep placenta; assay by Panlabs
Nature of the series: biochemical. Type of series: biochemical, sheep. How it is done: The reaction is initiated by addition of arachidonic acid (100 mM) and terminated after 20 minutes incubation at 37° C. by addition of TCA.

For series [7], the system named is 5α-reductase. The conditions noted are these: cited from earlier work.
Series [8] relates to Type 1 5α-reductase. The following applies: cited from earlier work.
Series [9] deals with Type 2 5α-reductase. The following applies: cited from earlier work.
In series [10] the test system is 5α-reductase. The following applies: rat, in vivo; cited from earlier work.
Series [11] has as its system 5α-reductase. The following applies: in vivo; cited from earlier work.
Series [12] relates to smooth muscle. The conditions noted are these: cited from earlier work.
For series [13] the following is noted: cited from earlier work; for time to degradation in oil preparations: exposed to light, "in as little as".
The mark [14] stands for this setting: Table 1, read-out: IC50 for DHT inhibition, stroma (type 2).
[15] abbreviates: fibroblasts, read-out: IC50, inhibition of DHT formation in fibroblasts.
The mark [16] stands for this setting: Table 8, read-out: 5 Lipoxygenase IC50 (Table 8).
Setting [17] is: Table 8, read-out: Cyclooxygenase-1 IC50 (Table 8).
Where [18] appears, read: Table 8, read-out: Cyclooxygenase-2 IC50 (Table 8).
Where [19] appears, read: read-out: Testosterone affinity, Km.

T3 sequence (P79208 17-603): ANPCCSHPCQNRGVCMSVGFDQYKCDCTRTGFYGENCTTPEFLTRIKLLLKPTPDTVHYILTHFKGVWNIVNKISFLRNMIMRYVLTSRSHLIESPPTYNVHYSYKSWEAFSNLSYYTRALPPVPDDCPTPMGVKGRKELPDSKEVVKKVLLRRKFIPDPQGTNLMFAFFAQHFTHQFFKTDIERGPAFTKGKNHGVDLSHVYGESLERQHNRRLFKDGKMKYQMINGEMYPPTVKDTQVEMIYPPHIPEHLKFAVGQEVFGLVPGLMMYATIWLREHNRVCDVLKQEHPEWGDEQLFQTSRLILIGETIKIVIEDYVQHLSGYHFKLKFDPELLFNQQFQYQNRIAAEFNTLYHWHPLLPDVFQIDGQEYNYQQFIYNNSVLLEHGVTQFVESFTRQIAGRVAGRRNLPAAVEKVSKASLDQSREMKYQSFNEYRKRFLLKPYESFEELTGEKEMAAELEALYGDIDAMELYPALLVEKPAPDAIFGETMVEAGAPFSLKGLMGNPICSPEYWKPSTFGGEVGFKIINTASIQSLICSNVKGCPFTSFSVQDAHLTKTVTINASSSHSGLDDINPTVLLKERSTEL

For the compound `CCN(CC)C(=O)[C@H]1CC[C@H]2[C@@H]3CC[C@H]4N(C)C(=O)CC[C@]4(C)[C@H]3CC[C@]12C` [4-MA], the half-maximal inhibitory concentration (IC50) is 20 nM in [1], 50 nM in series [2] (setting [14]), 50 nM in series [2] (setting [15]) and 10 nM in series [3]. In addition, the Inhibition type result in series [3] is reported as “Competitive”.

For the compound `CCCCCCCCCCCC(=O)OCC` [Ethyl laurate], the figures for the half-inhibitory concentration (IC50) in series [4] (setting [16]), in series [5] (setting [17]) and in series [6] (setting [18]) were over 30000 nM, over 300000 nM and over 300000 nM, respectively. In series [4], the 5-Lipo activity result is reported as “Negative”. Also, the Cox1 activity entry in series [5] is given as “Negative”. The Cox2 activity result in [6] is recorded as “Negative”. Moreover, the 5α-reductase inhibitory activity entry in series [7] is given as “markedly less effective”.

Regarding `CC(C)(C)NC(=O)[C@H]1CC[C@H]2[C@@H]3CC[C@H]4NC(=O)C=C[C@]4(C)[C@H]3CC[C@]12C` [Finasteride], the 50% inhibitory concentration (IC50) in series [1] is 400 nM; in series [2] (setting [14]) it was 30 nM; in series [2] (setting [15]), 30 nM; in series [3] it was 500 nM; in series [8] (read-out: inhibition, IC50), 400 nM; in [9] (read-out: inhibition, IC50), 10.7 nM. In addition, the Inhibition type entry in [3] is listed as “Competitive”. Moreover, the figures for the type of inhibition entry in series [8] and in series [9] were “competitive” and “(non)competitive”, respectively. Further, the Ki in [8] (read-out: inhibition, Ki) is 108 nM; in series [9] (read-out: inhibition, Ki) it was 7.3 nM. Further, the “inhibition of 5α-reductase in castrated rats” value in series [10] is reported as “inhibits 5α-reductase”. Further, in series [11], the “decrease in serum DHT levels” value is “decrease in serum DHT levels”.

For the compound `CCCCCCCCCCCC(=O)O` [Lauric Acid], the concentration for half-maximal inhibition (IC50) is over 30000 nM in [4] (setting [16]), over 300000 nM in series [5] (setting [17]) and over 300000 nM in [6] (setting [18]). For the same compound, the 5-Lipo activity entry in series [4] is on record as “Negative”. Besides, the Cox1 activity entry in series [5] is reported as “Negative”. Also, in series [6], the Cox2 activity result was “Negative”. Moreover, in series [7], the 5α-reductase inhibitory activity entry is on record as “particularly potent inhibitors”.

For `CCCCC/C=C\C/C=C\CCCCCCCC(=O)O` [Linoleic Acid], in series [4], the IC50 was over 30000 nM and the 5-Lipo activity result is reported as “Negative”. Further, in [5], the IC50 was over 300000 nM and the Cox1 activity result is “Negative”. Also, in series [6], the Cox2 activity entry is “Negative” and the concentration for half-maximal inhibition (IC50) is over 300000 nM. Further, the 5α-reductase inhibitory activity result in series [7] is reported as “particularly potent inhibitors”.

For `CC/C=C\C/C=C\C/C=C\CCCCCCCC(=O)O` [Linolenic Acid], the IC50 was 12000 nM in [4] and over 300000 nM in series [6] (setting [18]). The Cox2 activity entry in [6] is “Negative”. Also, the 5α-reductase inhibitory activity result in series [7] is reported as “particularly potent inhibitors”.

For the compound `Cc1c2oc3c(C)ccc(C(=O)N[C@@H]4C(=O)N[C@H](C(C)C)C(=O)N5CCC[C@H]5C(=O)N(C)CC(=O)N(C)[C@@H](C(C)C)C(=O)O[C@@H]4C)c3nc-2c(C(=O)N[C@@H]2C(=O)N[C@H](C(C)C)C(=O)N3CCC[C@H]3C(=O)N(C)CC(=O)N(C)[C@@H](C(C)C)C(=O)O[C@@H]2C)c(N)c1=O` [actinomycin D] (I: T[dV]P[Sar][NMeV] / II: T[dV]P[Sar][NMeV]; ester I:1-I:C, II:1-II:C; linker I:N-II:N via Actinocin(9to1)), in series [12], the “effect on relaxant effect of Sabal extracts” value was “antagonized the effect of the total lipidic extract without modifying that of the saponifiable extract”.

On to `CCC(C)C(=O)[C@]12C(=O)[C@](CC=C(C)C)(C[C@H](CC=C(C)C)[C@@]1(C)CCC=C(C)C)C(=O)C(CC=C(C)C)=C2O` (stereo partly shown) [adhyperforin], for which the “time to degradation in oil preparations” value in series [13] is recorded as 14 days.

For `O=c1c(-c2ccc(O)cc2)coc2cc(O)cc(O)c12` [genistein], in series [12], the “effect on relaxant effect of Sabal extracts” value was “not modified”.

As to `CC(C)=CCCC1(C)C(CC=C(C)C)CC2(CC=C(C)C)C(=O)C(CC=C(C)C)=C(O)C1(C(=O)C(C)C)C2=O` (stereo not shown) [hyperforin], the “time to degradation in oil preparations” value in series [13] is recorded as 14 days.

With `Cc1cc(O)c2c(=O)c3c(O)cc(O)c4c5c(O)cc(O)c6c(=O)c7c(O)cc(C)c8c1c2c(c34)c(c78)c65` [hypericin], the “hypericin content on storage” value in [13] (60-140 °C, more than six weeks, powdered extract, tablet and juice) is on record as “drop significantly”.

Take `C[C@]12CC[C@H]3[C@@H](CCC4=CC(=O)CC[C@@]43C)[C@@H]1CC[C@@H]2O` [testosterone]: the results for the “Testosterone, Vmax” value in [8] and in series [9] were 4.2 nmoles/10^6 cells/min and 57.6 nmoles/10^6 cells/min, respectively. Besides, the Michaelis constant (Km) was 2.9 µM in series [8] (setting [19]) and 0.5 µM in series [9] (setting [19]).
